# In patent EP4537832A1, “METHOD FOR TREATING CANCER PATIENT WITH AKR1C3 ENZYME-ACTIVATED PRODRUG” (Ascentawits Pharmaceuticals, Ltd., priority 2022, dated 2023):
# Tests used:
# [1] = test system: p-ERK2; assay: Western blot in HPAF II cells with MEK/ERK modulators and AST: p-ERK2; format: cell-based
# Description: The experiment used three types of MEK/ERK modulators, including two inhibitors and one activator. The inhibitors were PD98059, a MEK1/2 specific inhibitor, and Suramin, a broad-spectrum growth factor receptor inhibitor; while the activator of the ERK signaling pathway is Phorbol Ester (TPA). The chemical structures of inhibitor PD98059, inhibitor Suramin, and activator TPA are as follows: [drawing 48] [drawing 49] [drawing 50]
# The experiment was assigned to inhibitor group and activator group, both of which were performed by Western Blot and cell apoptosis experiments.
# In the Western blot experiment, HPAF II cell suspensions were treated with each group of compounds, and cultured overnight in a 37 °C, 5% CO2 incubator, and the cell protein lysate was collected for Western blot (WB) detection.
# (§1) The specific compounds to be treated in the Western blot inhibitor group and activator group are as follows: Inhibitor group: 1% DMSO treatment group, 1 µM AST treatment group, 30 µM PD98059 treatment group, 1 mM Suramin treatment group, 1 µM AST + 30 µM PD98059 treatment group, and 1 µM AST + 1 mM Suramin treatment group; and Activator group: 1% DMSO treatment group, 0.5 µM AST treatment group, 25 nM TPA treatment group, and 0.5 µM AST + 25 nM TPA treatment group.
# [2] = test system: HPAF II cells; assay: Cell apoptosis detection (Caspase Glo 3/7) in HPAF II cells with MEK/ERK modulators and AST; format: cell-based
# Method: Additionally, cell apoptosis detection was performed as follows: • 1) Caspase Glo® 3/7 reagents were prepared and equilibrated to room temperature. The buffer of the reagents and the substrate were mixed homogeneously at 1:1 to prepare Caspase Glo® 3/7 reagents. The configured reagents can be stored at 4 °C for 3 days. • 2) 100 µL Caspase Glo® 3/7 reagents were added to each well of culture medium containing 100 µL blank (wells without cells), negative control cells, or treated cells. Due to the sensitivity of the analysis, be careful not to make the tip of the pipette to touch the holes that contained samples to avoid cross contamination. The plates were covered with a plate sealant or lid. • 3) The reagent solutions were mixed gently using a shaker at a speed of 300-500 rpm for 30 seconds, and left in the dark at room temperature for 1 hour. • 4) The luminescence of each sample was measured in a plate reading photometer. And the luminescence value of each group was calculated, and analyze by making a column diagram.
# as §1, with “apoptosis” for “Western blot”, “Inhibition” for “Inhibitor”, “1” for “0.5”, “50” for “25”
# [3] = test system: AKR1C3; settings: HPAF II cells; increasing SFN concentration 0.875-7 µM, overnight
# Method: (§2) The solution of SFN compound (Sulforaphane, NRF2 activator) was added to HPAF II cell suspension, cultured overnight in a 37 °C, 5% CO2 incubator, and the cell protein lysate was collected for Western blot (WB) detection.
# (§3) The experiment was assigned to 5 groups: 0.5% DMSO, 0.875 µM SFN, 1.75 µM SFN, 3.5 µM SFN, and 7 µM SFN.
# (§4) HPAF II cells were treated with different concentrations of NRF2 activator SFN, and then the expression of NRF2 and AKR1C3 was detected by Western blot.
# [4] = test system: NRF2; settings: HPAF II cells; increasing SFN concentration 0.875-7 µM, overnight
# Method: as §2, §3, §4
smiles,measurement,setting,value
"COc1cccc(-c2cc(=O)c3ccccc3o2)c1N [PD98059, reference compound]",expression level of p-ERK2,[1]; 30 µM PD98059 alone,slightly reduced
same,cell apoptosis (Caspase 3/7 luminescence),[2]; 30 µM PD98059 monotherapy,almost no effect on cell apoptosis
"C[S+]([O-])CCCCN=C=S (stereo not drawn) [SFN, Sulforaphane]",expressions of AKR1C3,[3],also increased simultaneously
same,expressions of NRF2,[4],significantly increased
"Cc1ccc(C(=O)Nc2ccc(S(=O)(=O)O)c3cc(S(=O)(=O)O)cc(S(=O)(=O)O)c23)cc1NC(=O)c1cccc(NC(=O)Nc2cccc(C(=O)Nc3cc(C(=O)Nc4ccc(S(=O)(=O)O)c5cc(S(=O)(=O)O)cc(S(=O)(=O)O)c45)ccc3C)c2)c1 [suramin, Suramin, reference compound]",expression level of p-ERK2,[1]; 1 mM Suramin alone,slightly reduced
same,cell apoptosis (Caspase 3/7 luminescence),[2]; 1 mM Suramin monotherapy,almost no effect on cell apoptosis
